# Patent US12172983B2, “EGFR inhibitors” (Blueprint Medicines Corporation, priority 2019, dated 2024)
# How the values were obtained:
# [1] = system: phosphorylation of EGFR (Tyr1068) in NCI-H1975 cell line that harbors the EGFR L858R T790M mutations; test: NCI-H1975 pEGFR AlphaLISA assay; type: cell-based; conditions: Homo sapiens, NCI-H1975, inhibition of phosphorylation of mutant EGFR in NCI-H1975 cells; 4-5 hours incubation; read-out: Ext pEGFR H1975
# Outline: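 Phospho-EGFR Tyr1068 AlphaLISA readout: lysates taken from compound-treated H1975 cells (L858R T790M EGFR) after a 4-5 h exposure at 37 °C. Cells had adhered overnight beforehand. IC50 derived by plotting % pEGFR inhibition against log compound concentration.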
# EGFR (L858R T790M C797S) = molecular target: T1, EGFR (L858R T790M C797S) (Homo sapiens, UniProt P00533, C797S/L858R/T790M); test: Biochemical EGFR inhibition assay (Caliper mobility shift), EGFR LRTMCS mutant; conditions: inhibitory activity against EGFR LRTMCS mutant; apparent IC50; read-out: Ext Enz LRTMCS
# T1 construct: purchased SignalChem E10-122VG
# Outline: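 Each enzyme was allowed to phosphorylate 10–20% of its peptide at 25° C. before EDTA (35 mM) quench. Separated substrate and product peaks were measured by mobility shift, giving apparent IC50 values.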
# T1 sequence (P00533 25-1210 T790M/C797S/L858R): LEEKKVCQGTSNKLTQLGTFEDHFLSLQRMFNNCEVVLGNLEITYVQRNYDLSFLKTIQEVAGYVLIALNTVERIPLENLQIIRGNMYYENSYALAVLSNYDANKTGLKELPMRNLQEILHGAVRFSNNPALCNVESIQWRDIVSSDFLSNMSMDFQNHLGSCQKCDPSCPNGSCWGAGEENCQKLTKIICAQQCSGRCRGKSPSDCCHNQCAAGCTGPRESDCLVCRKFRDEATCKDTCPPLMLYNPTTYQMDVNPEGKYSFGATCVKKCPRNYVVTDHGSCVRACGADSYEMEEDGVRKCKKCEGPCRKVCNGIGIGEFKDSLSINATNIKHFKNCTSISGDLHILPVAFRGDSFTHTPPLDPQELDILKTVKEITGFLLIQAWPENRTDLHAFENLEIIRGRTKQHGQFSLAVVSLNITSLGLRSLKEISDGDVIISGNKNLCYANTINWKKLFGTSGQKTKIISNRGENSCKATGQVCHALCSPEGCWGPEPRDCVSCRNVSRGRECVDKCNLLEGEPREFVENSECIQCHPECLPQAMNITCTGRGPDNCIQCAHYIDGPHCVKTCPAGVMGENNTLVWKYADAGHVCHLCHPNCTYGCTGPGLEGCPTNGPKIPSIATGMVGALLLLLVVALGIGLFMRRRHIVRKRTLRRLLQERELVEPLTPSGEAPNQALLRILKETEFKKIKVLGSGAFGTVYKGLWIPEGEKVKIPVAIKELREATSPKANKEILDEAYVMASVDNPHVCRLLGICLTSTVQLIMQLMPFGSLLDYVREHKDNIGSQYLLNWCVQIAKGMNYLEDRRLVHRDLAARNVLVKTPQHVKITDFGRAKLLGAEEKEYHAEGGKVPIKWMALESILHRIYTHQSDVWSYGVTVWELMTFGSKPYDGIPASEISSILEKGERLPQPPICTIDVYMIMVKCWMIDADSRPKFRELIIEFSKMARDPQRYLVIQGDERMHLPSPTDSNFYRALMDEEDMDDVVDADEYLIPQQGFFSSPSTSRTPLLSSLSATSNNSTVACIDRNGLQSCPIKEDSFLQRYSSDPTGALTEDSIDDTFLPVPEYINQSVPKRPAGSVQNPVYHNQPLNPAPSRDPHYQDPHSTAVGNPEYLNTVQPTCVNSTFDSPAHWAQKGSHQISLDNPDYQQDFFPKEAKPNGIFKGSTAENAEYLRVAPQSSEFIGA
SMILES,IC50 [1] [nM],IC50 (EGFR (L858R T790M C797S)) [nM]
"CC(C)c1ccc(N2C[C@H](CS(C)(=O)=O)[C@H]2C)c2cnc(Nc3ccnc(N4CC[C@@H](OCCN(C)C)[C@@H](F)C4)n3)cc12 [Compound 254, N-{2-[(3S,4R)-4-[2-(dimethylamino)ethoxy]-3-fluoropiperidin-1-yl]pyrimidin-4-yl}-8-[(2R,3S)-3-(methanesulfonylmethyl)-2-methylazetidin-1-yl]-5-(propan-2-yl)isoquinolin-3-amine]",≤ 10,≤ 15
"CC(C)c1ncc(N2C[C@H](CS(C)(=O)=O)[C@H]2C)c2cnc(Nc3ccnc(N4CC[C@H](OCC(C)(C)O)[C@H](F)C4)n3)cc12 [Compound 257, 1-{[(3R,4S)-3-fluoro-1-[4-({8-[(2R,3S)-3-(methanesulfonylmethyl)-2-methylazetidin-1-yl]-5-(propan-2-yl)-2,6-naphthyridin-3-yl}amino)pyrimidin-2-yl]piperidin-4-yl]oxy}-2-methylpropan-2-ol]",10.1 to 20,15.1 to 20
"CC(C)c1ncc(N2C[C@H](CS(C)(=O)=O)[C@H]2C)c2cnc(Nc3ccnc(N4CC[C@@H](OCC(C)(C)O)[C@@H](F)C4)n3)cc12 [Compound 258, 1-{[(3S,4R)-3-fluoro-1-[4-({8-[(2R,3S)-3-(methanesulfonylmethyl)-2-methylazetidin-1-yl]-5-(propan-2-yl)-2,6-naphthyridin-3-yl}amino)pyrimidin-2-yl]piperidin-4-yl]oxy}-2-methylpropan-2-ol]",≤ 10,≤ 15
"CCS(=O)(=O)CC1CN(c2ccc(C(C)C)c3cc(Nc4ccnc(N5CC[C@@H](OC)[C@@H](F)C5)n4)ncc23)C1 [Compound 261, 8-{3-[(ethanesulfonyl)methyl]azetidin-1-yl}-N-{2-[(3S,4R)-3-fluoro-4-methoxypiperidin-1-yl]pyrimidin-4-yl}-5-(propan-2-yl)isoquinolin-3-amine]",≤ 10,≤ 15
"CCS(=O)(=O)CC1CN(c2ccc(C(C)C)c3cc(Nc4ccnc(N5CC[C@H](OC)[C@H](F)C5)n4)ncc23)C1 [Compound 262, 8-{3-[(ethanesulfonyl)methyl]azetidin-1-yl}-N-{2-[(3R,4S)-3-fluoro-4-methoxypiperidin-1-yl]pyrimidin-4-yl}-5-(propan-2-yl)isoquinolin-3-amine]",≤ 10,≤ 15
"CCS(=O)(=O)CC1CN(c2ccc(C(C)C)c3cc(Nc4ccnc(N5CC[C@@](C)(O)[C@@H](F)C5)n4)ncc23)C1 [Compound 276, (3S,4R)-1-{4-[(8-{3-[(ethanesulfonyl)methyl]azetidin-1-yl}-5-(propan-2-yl)isoquinolin-3-yl)amino]pyrimidin-2-yl}-3-fluoro-4-methylpiperidin-4-ol]",≤ 10,≤ 15
"CCS(=O)(=O)CC1CN(c2ccc(C(C)C)c3cc(Nc4cnnc(N5CC[C@@H](OC)[C@@H](F)C5)n4)ncc23)C1 [Compound 280, 8-{3-[(ethanesulfonyl)methyl]azetidin-1-yl}-N-{3-[(3S,4R)-3-fluoro-4-methoxypiperidin-1-yl]-1,2,4-triazin-5-yl}-5-(propan-2-yl)isoquinolin-3-amine]",≤ 10,≤ 15
"CCS(=O)(=O)CC1CN(c2ccc(C(C)C)c3cc(Nc4cnnc(N5CC[C@H](OC)[C@H](F)C5)n4)ncc23)C1 [Compound 281, 8-{3-[(ethanesulfonyl)methyl]azetidin-1-yl}-N-{3-[(3R,4S)-3-fluoro-4-methoxypiperidin-1-yl]-1,2,4-triazin-5-yl}-5-(propan-2-yl)isoquinolin-3-amine]",≤ 10,≤ 15
"CCS(=O)(=O)C[C@H]1CN(c2ccc(C(C)C)c3cc(Nc4cnnc(N5CC[C@H](OC)[C@H](F)C5)n4)ncc23)[C@@H]1C [Compound 289, 8-[(2R,3S)-3-[(ethanesulfonyl)methyl]-2-methylazetidin-1-yl]-N-{3-[(3R,4S)-3-fluoro-4-methoxypiperidin-1-yl]-1,2,4-triazin-5-yl}-5-(propan-2-yl)isoquinolin-3-amine]",≤ 10,≤ 15
"CNCCO[C@H]1CCN(c2nccc(Nc3cc4c(C(C)C)ccc(N5C[C@H](CS(C)(=O)=O)[C@H]5C)c4cn3)n2)C[C@H]1F [Compound 297, N-{2-[(3R,4S)-3-fluoro-4-[2-(methylamino)ethoxy]piperidin-1-yl]pyrimidin-4-yl}-8-[(2R,3S)-3-(methanesulfonylmethyl)-2-methylazetidin-1-yl]-5-(propan-2-yl)isoquinolin-3-amine]",≤ 10,≤ 15
"CCS(=O)(=O)C[C@H]1CN(c2cnc(C(C)C)c3cc(Nc4ccnc(N5CC[C@@H](OCCO)[C@@H](F)C5)n4)ncc23)[C@@H]1C [Compound 298, 2-{[(3S,4R)-1-[4-({8-[(2R,3S)-3-[(ethanesulfonyl)methyl]-2-methylazetidin-1-yl]-5-(propan-2-yl)-2,6-naphthyridin-3-yl}amino)pyrimidin-2-yl]-3-fluoropiperidin-4-yl]oxy}ethan-1-ol]",≤ 10,≤ 15

# Next, values leading:
IC50 [1] [nM],IC50 (EGFR (L858R T790M C797S)) [nM],SMILES
≤ 10,20.1 to 30,"CC(C)c1ccc(N2C[C@H](CS(C)(=O)=O)[C@H]2C)c2cnc(Nc3ccnc(N4CC[C@H](OCC(C)(C)O)[C@H](F)C4)n3)cc12 [Compound 255, 1-{[(3R,4S)-3-fluoro-1-[4-({8-[(2R,3S)-3-(methanesulfonylmethyl)-2-methylazetidin-1-yl]-5-(propan-2-yl)isoquinolin-3-yl}amino)pyrimidin-2-yl]piperidin-4-yl]oxy}-2-methylpropan-2-ol]"
≤ 10,20.1 to 30,"CC(C)c1ccc(N2C[C@H](CS(C)(=O)=O)[C@H]2C)c2cnc(Nc3ccnc(N4CC[C@@H](OCC(C)(C)O)[C@@H](F)C4)n3)cc12 [Compound 256, 1-{[(3S,4R)-3-fluoro-1-[4-({8-[(2R,3S)-3-(methanesulfonylmethyl)-2-methylazetidin-1-yl]-5-(propan-2-yl)isoquinolin-3-yl}amino)pyrimidin-2-yl]piperidin-4-yl]oxy}-2-methylpropan-2-ol]"
≤ 10,≤ 15,"CC(C)c1cnc(N2C[C@H](CS(C)(=O)=O)[C@H]2C)c2cnc(Nc3ccnc(N4CC[C@H](OCC(C)(C)O)[C@H](F)C4)n3)cc12 [Compound 259, 1-{[(3R,4S)-3-fluoro-1-[4-({8-[(2R,3S)-3-(methanesulfonylmethyl)-2-methylazetidin-1-yl]-5-(propan-2-yl)-2,7-naphthyridin-3-yl}amino)pyrimidin-2-yl]piperidin-4-yl]oxy}-2-methylpropan-2-ol]"
≤ 10,≤ 15,"CC(C)c1cnc(N2C[C@H](CS(C)(=O)=O)[C@H]2C)c2cnc(Nc3ccnc(N4CC[C@@H](OCC(C)(C)O)[C@@H](F)C4)n3)cc12 [Compound 260, 1-{[(3S,4R)-3-fluoro-1-[4-({8-[(2R,3S)-3-(methanesulfonylmethyl)-2-methylazetidin-1-yl]-5-(propan-2-yl)-2,7-naphthyridin-3-yl}amino)pyrimidin-2-yl]piperidin-4-yl]oxy}-2-methylpropan-2-ol]"
10.1 to 20,15.1 to 20,"[2H]C([2H])([2H])OC1CCN(c2nccc(Nc3cc4c(C(C)C)ccc(N5C[C@H](CS(C)(=O)=O)[C@H]5C)c4cn3)n2)CC1 [Compound 263, 8-[(2R,3S)-3-(methanesulfonylmethyl)-2-methylazetidin-1-yl]-N-{2-[4-(^2H3)methoxypiperidin-1-yl]pyrimidin-4-yl}-5-(propan-2-yl)isoquinolin-3-amine]"
≤ 10,≤ 15,"[2H]C([2H])([2H])O[C@@H]1CCN(c2nccc(Nc3cc4c(C(C)C)cnc(N5CC(CS(C)(=O)=O)C5)c4cn3)n2)C[C@@H]1F [Compound 264, N-{2-[(3S,4R)-3-fluoro-4-(^2H3)methoxypiperidin-1-yl]pyrimidin-4-yl}-8-[3-(methanesulfonylmethyl)azetidin-1-yl]-5-(propan-2-yl)-2,7-naphthyridin-3-amine]"
≤ 10,≤ 15,"CCS(=O)(=O)C[C@H]1CN(c2ccc(C(C)C)c3cc(Nc4cnnc(N5CC[C@@H](OC)[C@@H](F)C5)n4)ncc23)[C@@H]1C [Compound 288, 8-[(2R,3S)-3-[(ethanesulfonyl)methyl]-2-methylazetidin-1-yl]-N-{3-[(3S,4R)-3-fluoro-4-methoxypiperidin-1-yl]-1,2,4-triazin-5-yl}-5-(propan-2-yl)isoquinolin-3-amine]"
≤ 10,≤ 15,"CC(C)c1ccc(N2CC(CS(C)(=O)=O)C2)c2cnc(Nc3ccnc(N4CC[C@H](OCCO)[C@H](F)C4)n3)cc12 [Compound 290, 2-{[(3R,4S)-3-fluoro-1-[4-({8-[3-(methanesulfonylmethyl)azetidin-1-yl]-5-(propan-2-yl)isoquinolin-3-yl}amino)pyrimidin-2-yl]piperidin-4-yl]oxy}ethan-1-ol]"
≤ 10,≤ 15,"CCS(=O)(=O)CC1CN(c2ccc(C(C)C)c3cc(Nc4ccnc(N5CC[C@@H](OCCO)[C@@H](F)C5)n4)ncc23)C1 [Compound 292, 2-{[(3S,4R)-1-{4-[(8-{3-[(ethanesulfonyl)methyl]azetidin-1-yl}-5-(propan-2-yl)isoquinolin-3-yl)amino]pyrimidin-2-yl}-3-fluoropiperidin-4-yl]oxy}ethan-1-ol]"
≤ 10,≤ 15,"CCS(=O)(=O)CC1CN(c2ccc(C(C)C)c3cc(Nc4ccnc(N5CC[C@H](OCCO)[C@H](F)C5)n4)ncc23)C1 [Compound 293, 2-{[(3R,4S)-1-{4-[(8-{3-[(ethanesulfonyl)methyl]azetidin-1-yl}-5-(propan-2-yl)isoquinolin-3-yl)amino]pyrimidin-2-yl}-3-fluoropiperidin-4-yl]oxy}ethan-1-ol]"
